Earlier results on one compound are cited in patent US12599555B2, “Formulation” (priority 2019, dated 2026).

The conditions of this data set: administered by inhalation in the treatment of asthma.

Each structure is given as a SMILES string.

With `O=C([O-])c1cc(=O)c2c(OCC(O)COc3cccc4oc(C(=O)[O-])cc(=O)c34)cccc2o1.[Na+].[Na+]` [sodium cromoglicate, disodium 5,5′-[(2-hydroxytrimethylene)dioxy]bis-[4-oxo-4H-1-benzopyran-2-carboxylate]], the bioavailability is 10-15%.
